Source: US9902728B2, “Pyrrolo and pyrazolopyrimidines as ubiquitin-specific protease 7 inhibitors” (Forma Therapeutics, Inc., priority 2014, dated 2018)

These compounds were tested against T1, USP7 (Homo sapiens, UniProt Q93009) (assay: USP7 Assay A (Ubitquin-Rhodamine 110 Assay)). Conditions: USP7 activity in USP7 assay A and B (table does not say which assay per compound); read-out: USP7_IC50.
T1 construct: USP7, construct USP7 (208-1102) 6*His, Viva Biotech; 6xHis (C); purchased Viva Biotech
T1 sequence (Q93009 208-1102): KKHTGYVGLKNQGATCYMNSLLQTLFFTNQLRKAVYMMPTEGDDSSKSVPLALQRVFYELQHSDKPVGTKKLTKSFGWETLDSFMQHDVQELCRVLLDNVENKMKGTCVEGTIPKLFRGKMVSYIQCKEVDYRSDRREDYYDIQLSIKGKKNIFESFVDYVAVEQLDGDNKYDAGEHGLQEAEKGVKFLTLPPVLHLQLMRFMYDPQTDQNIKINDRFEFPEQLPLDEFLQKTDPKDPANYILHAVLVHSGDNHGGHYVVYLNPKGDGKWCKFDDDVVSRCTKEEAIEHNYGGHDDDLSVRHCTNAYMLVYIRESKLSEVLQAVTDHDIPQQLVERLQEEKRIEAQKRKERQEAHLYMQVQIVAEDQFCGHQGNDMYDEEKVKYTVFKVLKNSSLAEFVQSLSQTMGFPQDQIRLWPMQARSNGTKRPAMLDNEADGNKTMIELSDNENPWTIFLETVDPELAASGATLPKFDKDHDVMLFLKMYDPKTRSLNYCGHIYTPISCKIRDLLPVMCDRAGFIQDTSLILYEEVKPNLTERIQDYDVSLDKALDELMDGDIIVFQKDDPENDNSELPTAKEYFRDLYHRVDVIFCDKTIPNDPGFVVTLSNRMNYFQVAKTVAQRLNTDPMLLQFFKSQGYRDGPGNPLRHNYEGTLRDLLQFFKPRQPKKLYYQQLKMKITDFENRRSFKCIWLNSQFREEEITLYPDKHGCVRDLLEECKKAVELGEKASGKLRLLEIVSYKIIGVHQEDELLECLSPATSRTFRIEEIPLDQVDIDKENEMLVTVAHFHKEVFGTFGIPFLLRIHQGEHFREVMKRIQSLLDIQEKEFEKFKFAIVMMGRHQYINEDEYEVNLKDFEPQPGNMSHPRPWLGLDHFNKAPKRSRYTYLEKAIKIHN
Type: biochemical
In short: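 Enzyme and compound sat together for 30 min before Ub-Rh110 was added, in buffer of 20 mM Tris-HCl (pH 8.0), 1 mM GSH, 0.03% BGG and 0.01% Triton X-100.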
`CC1(C(=O)N2CCC(O)(Cn3cnc4c(cnn4-c4ccc(OCC5CC(F)(F)C5)cc4)c3=O)CC2)CC1` [Compound I-1133] gave an IC50 of under 200 nM. For `Cc1ncc(C(=O)N2CCC(O)(Cn3cnc4c(cnn4-c4ccc(OC5CCC(F)(F)CC5)cc4)c3=O)CC2)o1` [Compound I-1134], the IC50 was 200 to 1000 nM. Compound `Cc1ncc(C(=O)N2CCC(O)(Cn3cnc4c(cnn4-c4ccc(OCC5(F)CCC5)cc4)c3=O)CC2)o1` [Compound I-1135] has an IC50 of under 200 nM. `CC1(COc2ccc(-n3ncc4c(=O)n(CC5(O)CCN(C(=O)C6(C)CCC6)CC5)cnc43)cc2)COC1` [Compound I-1136] was tested, and the IC50 was under 200 nM. `CC1(C(=O)N2CCC(O)(Cn3cnc4c(cnn4-c4ccc(OCC5(F)CCC5)cc4)c3=O)CC2)CCC1` [Compound I-1137] showed an IC50 of under 200 nM. `Cc1ccc(-n2ncc3c(=O)n(CC4(O)CCN(C(=O)c5ccc(Cl)cc5N)CC4)cnc32)cc1` [Compound I-1140] gave an IC50 of 200 to 1000 nM. `O=C(C[C@H](C(F)F)n1cc(F)cn1)N1CCC(O)(Cn2cnc3c(cnn3-c3ccc(F)cc3)c2=O)CC1` [Compound I-1159] was tested, and the IC50 was under 200 nM. For `Cc1ccc(-n2ncc3c(=O)n(CC4(O)CCN(C(=O)c5ccc(Oc6ccc(OCCO)cn6)cc5)CC4)cnc32)cc1` [Compound I-1160], the IC50 was 200 to 1000 nM. With `Cn1cc(C(=O)N2CCC(O)(Cn3cnc4c(cnn4-c4ccc(F)cc4)c3=O)CC2)c(Cc2ccccc2)n1` [Compound I-1161] the IC50 was under 200 nM. `C[C@H](c1ccccc1)c1nn(C)cc1C(=O)N1CCC(O)(Cn2cnc3c(cnn3-c3ccc(F)cc3)c2=O)CC1` [Compound I-1162] gave an IC50 of under 200 nM. With `C[C@@H](c1ccccc1)c1nn(C)cc1C(=O)N1CCC(O)(Cn2cnc3c(cnn3-c3ccc(F)cc3)c2=O)CC1` [Compound I-1163] the IC50 was 1000 to 10000 nM. Compound `Cc1onc(Cc2ccccc2)c1C(=O)N1CCC(O)(Cn2cnc3c(cnn3-c3ccc(F)cc3)c2=O)CC1` [Compound I-1164] has an IC50 of under 200 nM. With `O=C(C[C@@H](C(F)F)n1ccc(F)n1)N1CCC(O)(Cn2cnc3c(cnn3-c3ccc(Cl)cc3)c2=O)CC1` [Compound I-1166] the IC50 was under 200 nM. `O=C(C[C@H](C(F)F)n1ccc(F)n1)N1CCC(O)(Cn2cnc3c(cnn3-c3ccc(Cl)cc3)c2=O)CC1` [Compound I-1167] gave an IC50 of 1000 to 10000 nM. Work on `CC1(O)CCN(c2ccc(-n3ncc4c(=O)n(CC5(O)CCN(C(=O)c6ccc(F)cc6)CC5)cnc43)cc2)C1` (centres unmarked) [Compound I-1168] yielded an IC50 of 200 to 1000 nM. Compound `O=C(c1ccc(F)cc1)N1CCC(O)(Cn2cnc3c(cnn3-c3ccc(N4CCCn5ccnc54)cc3)c2=O)CC1` [Compound I-1170] has an IC50 of 200 to 1000 nM. Compound `Cc1nc2n(n1)CCN(c1ccc(-n3ncc4c(=O)n(CC5(O)CCN(C(=O)c6ccc(F)cc6)CC5)cnc43)cc1)C2` [Compound I-1176] has an IC50 of 1000 to 10000 nM. Compound `O=C(c1ccc(F)cc1)N1CCC(O)(Cn2cnc3c(cnn3-c3ccc(N4CCn5ncnc5C4)cc3)c2=O)CC1` [Compound I-1178] has an IC50 of 1000 to 10000 nM. Work on `O=C(C1CCC(Oc2cccnn2)CC1)N1CCC(O)(Cn2cnc3c(cnn3-c3ccc(F)cc3)c2=O)CC1` (centres unmarked) [Compound I-1212] yielded an IC50 of 200 to 1000 nM.

Same assay, conditions: USP7 assay A and B (table does not say which assay per compound); read-out: USP7_IC50
`CO[C@@H]1CCN(c2ccc(-n3ncc4c(=O)n(CC5(O)CCN(C(=O)N(C)C)CC5)cnc43)cc2)C1` [Compound I-1138] gave an IC50 of 1000 to 10000 nM. `Cc1ccc(-n2ncc3c(=O)n(CC4(O)CCN(C(=O)C[C@H](C)c5ccccc5)CC4)cnc32)cc1` [Compound I-1139] showed an IC50 of under 200 nM. In the case of `Cc1ccc(-n2ncc3c(=O)n(CC4(O)CCN(C(=O)c5ccc(OC6CCC(O)CC6)cc5)CC4)cnc32)cc1` (centres unmarked) [Compound I-1141, 5-((4-Hydroxy-1-(4-(4-hydroxycyclohexyloxy)benzoyl)piperidin-4-yl)methyl)-1-p-tolyl-1H-pyrazolo[3,4-d]pyrimidin-4 (5H)-one], the IC50 is reported as 1000 to 10000 nM. `Cc1ccc(-n2ncc3c(=O)n(CC4(O)CCN(C(=O)c5ccc(OC6CN(C)C6)cc5)CC4)cnc32)cc1` [Compound I-1142] gave an IC50 of 1000 to 10000 nM. For `Cc1ccc(-n2ncc3c(=O)n(CC4(O)CCN(C(=O)c5ccc(OC6CCOCC6)cc5)CC4)cnc32)cc1` [Compound I-1144], the IC50 was 1000 to 10000 nM. With `Cc1ccc(-n2ncc3c(=O)n(CC4(O)CCN(C(=O)c5ccc(OC6CCNCC6)cc5)CC4)cnc32)cc1` [Compound I-1145] the IC50 was 1000 to 10000 nM. `O=C(C1CC1)N1CCC(O)(Cn2cnc3c(cnn3-c3ccc(NCCN4CCCCC4)cc3)c2=O)CC1` [Compound I-1146] was tested, and the IC50 was 200 to 1000 nM. For `CC(C)OCCNc1ccc(-n2ncc3c(=O)n(CC4(O)CCN(C(=O)C5CC5)CC4)cnc32)cc1` [Compound I-1149], the IC50 was 1000 to 10000 nM. `CN1CCCC(CNc2ccc(-n3ncc4c(=O)n(CC5(O)CCN(C(=O)C6CC6)CC5)cnc43)cc2)C1` (centres unmarked) [Compound I-1151] was tested, and the IC50 was 200 to 1000 nM. Compound `O=C(C1CC1)N1CCC(O)(Cn2cnc3c(cnn3-c3cccc(NCc4ccccc4)c3)c2=O)CC1` [Compound I-1155] has an IC50 of 200 to 1000 nM. `O=C(C1CC1)N1CCC(O)(Cn2cnc3c(cnn3-c3cccc(NCc4cccnc4)c3)c2=O)CC1` [Compound I-1158] showed an IC50 of 1000 to 10000 nM. With `O=C(C1CC1)N1CCC(O)(Cn2cnc3c(cnn3-c3ccc(NCCc4ccccc4)cc3)c2=O)CC1` [Compound I-1187] the IC50 was 1000 to 10000 nM. Compound `COc1ccc(Nc2ccc(-n3ncc4c(=O)n(CC5(O)CCN(C(=O)C6CC6)CC5)cnc43)cc2)cn1` [Compound I-1191] has an IC50 of 1000 to 10000 nM. `O=C(C1CC1)N1CCC(O)(Cn2cnc3c(cnn3-c3cccc(NCCN4CCOCC4)c3)c2=O)CC1` [Compound I-1194] gave an IC50 of 1000 to 10000 nM. Work on `CC(C)OCCNc1cccc(-n2ncc3c(=O)n(CC4(O)CCN(C(=O)C5CC5)CC4)cnc32)c1` [Compound I-1196] yielded an IC50 of 1000 to 10000 nM. `CN1CCCC(CNc2cccc(-n3ncc4c(=O)n(CC5(O)CCN(C(=O)C6CC6)CC5)cnc43)c2)C1` (centres unmarked) [Compound I-1197] showed an IC50 of 200 to 1000 nM. `O=C(C1CC1)N1CCC(O)(Cn2cnc3c(cnn3-c3ccc(N4CCCC4)cc3)c2=O)CC1` [Compound I-1199] gave an IC50 of 1000 to 10000 nM. `O=C(C1CC1)N1CCC(O)(Cn2cnc3c(cnn3-c3cccc(N4CCCC4)c3)c2=O)CC1` [Compound I-1200] was tested, and the IC50 was 200 to 1000 nM. Compound `O=C(C1CC1)N1CCC(O)(Cn2cnc3c(cnn3-c3cccc(N4CCCCC4)c3)c2=O)CC1` [Compound I-1202] has an IC50 of 1000 to 10000 nM. `O=C(C1CC1)N1CCC(O)(Cn2cnc3c(cnn3-c3cccc(N4CCC(c5ccccc5)CC4)c3)c2=O)CC1` [Compound I-1205] showed an IC50 of 1000 to 10000 nM. With `CC(=O)NC1CCN(c2ccc(-n3ncc4c(=O)n(CC5(O)CCN(C(=O)C6CC6)CC5)cnc43)cc2)CC1` [Compound I-1208] the IC50 was 1000 to 10000 nM. In the case of `CN(C)C1CCN(c2cccc(-n3ncc4c(=O)n(CC5(O)CCN(C(=O)C6CC6)CC5)cnc43)c2)CC1` [Compound I-1209], the IC50 is reported as 200 to 1000 nM. In the case of `CC(=O)N1CCN(c2ccc(-n3ncc4c(=O)n(CC5(O)CCN(C(=O)C6CC6)CC5)cnc43)cc2)CC1` [Compound I-1211], the IC50 is reported as 1000 to 10000 nM. With `O=C(C1CC1)N1CCC(O)(Cn2cnc3c(cnn3-c3ccc(-c4ccccn4)cc3)c2=O)CC1` [Compound I-1214] the IC50 was 1000 to 10000 nM. Compound `O=C(C1CC1)N1CCC(O)(Cn2cnc3c(cnn3-c3ccc(N4CCC5(CCOCC5)C4)cc3)c2=O)CC1` [Compound I-1216] has an IC50 of 1000 to 10000 nM. With `O=C(C1CC1)N1CCC(O)(Cn2cnc3c(cnn3-c3cccc(Nc4ccncc4)c3)c2=O)CC1` [Compound I-1232] the IC50 was 1000 to 10000 nM. `O=C(C1CC1)N1CCC(O)(Cn2cnc3c(cnn3-c3ccc(Nc4ccc(N5CCOCC5)cc4)cc3)c2=O)CC1` [Compound I-1234] showed an IC50 of 1000 to 10000 nM. Compound `O=C(C1CC1)N1CCC(O)(Cn2cnc3c(cnn3-c3cccc(Nc4ccc5ncsc5c4)c3)c2=O)CC1` [Compound I-1257] has an IC50 of 200 to 1000 nM.
